Experimental data from paper PMC12516397 (ACS Medicinal Chemistry Letters, 2025).
No end group written: not given here.

Molecular target: SARS-CoV-2 main protease (Mpro) (Severe acute respiratory syndrome coronavirus 2, UniProt P0DTD1)
Experiment: biochemical
Details: not given

Substance	IC50 [µM]
SAFWQWFSKFLGR-NH2 [TLP-3]	7 ± 1.5
SAYWQWFSKFLGRIL-NH2 [TLP-2]	11.5 ± 1
FVQWFSKFLGRIL-NH2 [Temporin L, reference compound]	39 ± 4.5
FLQWFSKFLGRIL-NH2 [TLP-1]	11.4 ± 1.5

Test system: Vero E6 cells
Experiment: not given
Details: 72 h

Substance	CC50, cellular viability [µM]
SAFWQWFSKFLGR-NH2 [TLP-3]	14.91
SAYWQWFSKFLGRIL-NH2 [TLP-2]	2.56
FVQWFSKFLGRIL-NH2 [Temporin L, reference compound]	6.78
FLQWFSKFLGRIL-NH2 [TLP-1]	4.65

Test system: not given
Experiment: not given
Details: pH 5

Substance	Solubility
SAFWQWFSKFLGR-NH2 [TLP-3]	limited peptide solubility
SAYWQWFSKFLGRIL-NH2 [TLP-2]	limited peptide solubility
FLQWFSKFLGRIL-NH2 [TLP-1]	limited peptide solubility
